Test results as given in US20240139333A1, “2,6-DICHLOROPHENYL ESTER COMPOUNDS AND USE THEREOF” (Fusion Pharmaceuticals Inc., priority 2021, published 2024).
Blank lines part the entries; values can stand above or below the molecule they belong to.

Columns and labels:
pH stability study = type: physicochemical; conditions: 20° C.
Description: To a 4 mL scintillation vial containing Compound A-E (in respective experiments; 0.8 mg) was added 4 mL of either a pH 3, pH 5 pH 7 or pH 9 buffer to create a 0.2 mg/mL solution. 2 mL of this solution was added to a 2 mL HPLC vial and placed in the auto sampler of an HPLC-MS at 20° C. Timed aliquots at time (T)=15, 30, 60, 120, 240 and 480 minutes were taken and analyzed by HPLC-MS using elution method 1 (Table 3). […]
pH 3 Buffer: Citric acid/Na2HPO4 (79.45 mL 0.1 M-citric acid and 20.55 mL 0.2-Na2HPO4) pH 5 Buffer: Citric acid/Na2HPO4 (48.50 mL 0.1 M-citric acid and 51.50 mL 0.2-Na2HPO4) pH 7 Buffer: Citric acid/Na2HPO4 (17.65 mL 0.1 M-citric acid and 82.35 mL 0.2-Na2HPO4) pH 9 Buffer: Sodium Carbonate/Sodium Bicarbonate (10 mL 0.1 M-Na2CO3 and 90 mL 0.1-NaHCO3)

[1] = Active ester reactivity study with amino acids (Z-Ser-OH); conditions: Z-Ser-OH 1 eq., 22±2° C.
Description: (§1) General Experimental Protocol for Nucleophilic Reactivity Study with Amino Acids
(§2) To a 4 mL scintillation vial containing Compound A or C (1 eq.) was added a stir bar followed by 70 μL of HPLC grade acetonitrile. In another 4 mL scintillation vial containing a respective amino acid (1-5 eq.) was added 130 μL HPLC grade water followed by diisopropylethylamine (5 eq.). The solutions were combined and allowed to stir at room temperature (22±2° C.) for 4 hours. Timed aliquots at time (T)=15, 30, 60, 120 and 240 minutes were taken and analyzed by HPLC-MS using elution method 1 (Table 6).

[2] = Active ester reactivity study with amino acids (Z-Arg-OH); conditions: Z-Arg-OH 1 eq., 22±2° C.
Description: as §1, §2

[3] = Competitive reactivity study between L-Lysine and HOPO nucleophile; conditions: L-Lysine 5 eq. / 1,2-HOPO 1 eq.
Description: (§3) General Experimental Protocol for Competitive Reactivity Study with L-Lysine and HOPO or HOA Nucleophiles
as §2, with “A” for “A or C”, “acetonitrile followed by a respective HOPO or HOA nucleophile (1 eq).” for “acetonitrile.”, “L-Lysine monohydrochloride (5” for “a respective amino acid (1-5”, “7)” for “6).”

[4] = Competitive reactivity study between L-Lysine and HOA nucleophile; conditions: L-Lysine 5 eq. / N-Hydroxy-N-methyl benzamide 1 eq
Description: as §3
as §2, with “A” for “A or C”, “acetonitrile followed by a respective HOPO or HOA nucleophile (1 eq).” for “acetonitrile.”, “L-Lysine monohydrochloride (5” for “a respective amino acid (1-5”, “7)” for “6).”

Compound: O=C(CCc1cccnc1)Oc1c(Cl)cccc1Cl [Compound A, 2,6-Dichlorophenyl-3-(pyridin-3-yl)propanoate]
% Remaining (pH stability study; pH 3 buffer, 15 min): 100% | % Remaining (pH stability study; pH 3 buffer, 30 min): 100% | % Remaining (pH stability study; pH 3 buffer, 60 min): 100% | % Remaining (pH stability study; pH 3 buffer, 120 min): 100% | % Remaining (pH stability study; pH 3 buffer, 240 min): 100% | % Remaining (pH stability study; pH 3 buffer, 480 min): 100% | % Remaining (pH stability study; pH 5 buffer, 15 min): 100% | % Remaining (pH stability study; pH 5 buffer, 30 min): 100% | % Remaining (pH stability study; pH 5 buffer, 60 min): 100% | % Remaining (pH stability study; pH 5 buffer, 120 min): 100% | % Remaining (pH stability study; pH 5 buffer, 240 min): 100% | % Remaining (pH stability study; pH 5 buffer, 480 min): 100% | % Remaining (pH stability study; pH 7 buffer, 15 min): 100% | % Remaining (pH stability study; pH 7 buffer, 30 min): 100% | % Remaining (pH stability study; pH 7 buffer, 60 min): 100% | % Remaining (pH stability study; pH 7 buffer, 120 min): 99.35% | % Remaining (pH stability study; pH 7 buffer, 240 min): 98.75% | % Remaining (pH stability study; pH 7 buffer, 480 min): 97.82% | % Remaining (pH stability study; pH 9 buffer, 15 min): 98.15% | % Remaining (pH stability study; pH 9 buffer, 30 min): 95.27% | % Remaining (pH stability study; pH 9 buffer, 60 min): 92.61% | % Remaining (pH stability study; pH 9 buffer, 120 min): 87.81% | % Remaining (pH stability study; pH 9 buffer, 240 min): 79.28% | % Remaining (pH stability study; pH 9 buffer, 480 min): 61.56% | % Active Ester Remaining ([1]; 15 min): 97.56% | % Active Ester Remaining ([1]; 30 min): 97.14% | % Active Ester Remaining ([1]; 60 min): 96.30% | % Active Ester Remaining ([1]; 120 min): 93.35% | % Active Ester Remaining ([1]; 240 min): 91.55% | % Active Ester Remaining ([2]; 15 min): 94.23% | % Active Ester Remaining ([2]; 30 min): 90.34% | % Active Ester Remaining ([2]; 60 min): 86.74% | % Active Ester Remaining ([2]; 120 min): 78.45% | % Active Ester Remaining ([2]; 240 min): 73.31% | % Compound A Remaining ([3]; 15 min): (88.33) % | % Compound A Remaining ([3]; 30 min): (74.52) % | % Compound A Remaining ([3]; 60 min): (28.29) % | % Compound A Remaining ([3]; 120 min): (2.01) % | % Compound A Remaining ([3]; 240 min): (0) % | % Compound A Remaining ([4]; 15 min): (65.77) % | % Compound A Remaining ([4]; 30 min): (14.83) % | % Compound A Remaining ([4]; 60 min): (1.63) % | % Compound A Remaining ([4]; 120 min): (0) %

% Remaining (pH stability study; pH 3 buffer, 15 min): 98.19% | % Remaining (pH stability study; pH 3 buffer, 30 min): 93.92% | % Remaining (pH stability study; pH 3 buffer, 60 min): 89.61% | % Remaining (pH stability study; pH 3 buffer, 120 min): 82.13% | % Remaining (pH stability study; pH 3 buffer, 240 min): 68.98% | % Remaining (pH stability study; pH 3 buffer, 480 min): 48.46% | % Remaining (pH stability study; pH 5 buffer, 15 min): 96.06% | % Remaining (pH stability study; pH 5 buffer, 30 min): 86.91% | % Remaining (pH stability study; pH 5 buffer, 60 min): 79.07% | % Remaining (pH stability study; pH 5 buffer, 120 min): 65.20% | % Remaining (pH stability study; pH 5 buffer, 240 min): 45.26% | % Remaining (pH stability study; pH 5 buffer, 480 min): 20.20% | % Remaining (pH stability study; pH 7 buffer, 15 min): 94.61% | % Remaining (pH stability study; pH 7 buffer, 30 min): 83.82% | % Remaining (pH stability study; pH 7 buffer, 60 min): 73.25% | % Remaining (pH stability study; pH 7 buffer, 120 min): 54.53% | % Remaining (pH stability study; pH 7 buffer, 240 min): 27.99% | % Remaining (pH stability study; pH 7 buffer, 480 min): 5.60% | % Remaining (pH stability study; pH 9 buffer, 15 min): 7.60% | % Remaining (pH stability study; pH 9 buffer, 30 min): 1.71% | % Remaining (pH stability study; pH 9 buffer, 60 min): 0.49% | % Remaining (pH stability study; pH 9 buffer, 120 min): 0% | % Active Ester Remaining ([1]; 15 min): 41.75% | % Active Ester Remaining ([1]; 30 min): 28.90% | % Active Ester Remaining ([1]; 60 min): 10.96% | % Active Ester Remaining ([1]; 120 min): 2.89% | % Active Ester Remaining ([1]; 240 min): 0.12% | % Active Ester Remaining ([2]; 15 min): 22.34% | % Active Ester Remaining ([2]; 30 min): 3.47% | % Active Ester Remaining ([2]; 60 min): 0.36% | % Active Ester Remaining ([2]; 120 min): 0%
Compound: O=C(CCc1cccnc1)Oc1c(F)c(F)cc(F)c1F [Compound C, 2,3,5,6-Tetrafluorophenyl-3-(pyridin-3-yl)propanoate]
